According to ChEMBL document CHEMBL1129068, “Structure-activity relationships of the antimalarial agent artemisinin. 5. Analogs of 10-deoxoartemisinin substituted at C-3 and C-9” (J Med Chem, 1996):

How the values were obtained:
Plasmodium falciparum [1] = test: Relative in vitro activity compared to artemisinin against Plasmodium falciparum D6 (Sierra Leone); type: functional
Plasmodium falciparum [2] = test: Relative in vitro activity compared to artemisinin against Plasmodium falciparum Indochina W2; type: functional

Compound | Relative activity (Plasmodium falciparum [1]) | Relative activity (Plasmodium falciparum [2])
CCCCC[C@H]1CO[C@@H]2O[C@@]3(C)CC[C@H]4[C@H](C)CC[C@@H]1[C@@]24OO3 | 170 | 145
C[C@@H]1CC[C@H]2[C@@H](CCCc3ccc(Cl)cc3)CO[C@@H]3O[C@@]4(C)CC[C@@H]1[C@]32OO4 | 6991 | 3317
C[C@@H]1CC[C@H]2CCO[C@@H]3O[C@@]4(CCCCc5ccccc5)CC[C@@H]1[C@@]23OO4 | 336 | 380
CCOC(=O)CC[C@@]12CC[C@H]3[C@H](C)CC[C@H]4CCO[C@H](O1)[C@]43OO2 | 422 | 506
CCC[C@@]12CC[C@H]3[C@H](C)CC[C@H]4CCO[C@H](O1)[C@]43OO2 | 722 | 685
CCC[C@H]1CO[C@@H]2O[C@@]3(C)CC[C@H]4[C@H](C)CC[C@@H]1[C@@]24OO3 | 473 | 550
C[C@@H]1CC[C@H]2CCO[C@@H]3O[C@@]4(C)CC[C@@H]1[C@@]23OO4 | 237 | 190
C[C@@H]1CC[C@H]2CCO[C@@H]3O[C@@]4(CCc5ccccc5)CC[C@@H]1[C@@]23OO4 | 6 | 2
CCCC[C@H]1CO[C@@H]2O[C@@]3(C)CC[C@H]4[C@H](C)CC[C@@H]1[C@@]24OO3 | 5826 | 2090
CCCC[C@@]12CC[C@H]3[C@H](C)CC[C@H]4CCO[C@H](O1)[C@]43OO2 | 653 | 556
C[C@@H]1CC[C@H]2CCO[C@@H]3O[C@@]4(CCC(=O)O)CC[C@@H]1[C@@]23OO4 | 0.09 | 0.09
CC(C)C[C@@]12CC[C@H]3[C@H](C)CC[C@H]4CCO[C@H](O1)[C@]43OO2 | 183 | 250
C[C@@H]1CC[C@H]2CCO[C@@H]3O[C@@]4(CCCc5ccc(Cl)cc5)CC[C@@H]1[C@@]23OO4 | 13 | 28
C[C@@H]1CC[C@H]2[C@@H](CCCc3ccccc3)CO[C@@H]3O[C@@]4(C)CC[C@@H]1[C@]32OO4 | 5073 | 2506
CC[C@H]1CO[C@@H]2O[C@@]3(C)CC[C@H]4[C@H](C)CC[C@@H]1[C@@]24OO3 | 914 | 466
CC[C@@]12CC[C@H]3[C@H](C)CC[C@H]4CCO[C@H](O1)[C@]43OO2 | 10 | 10
C[C@@H]1CC[C@H]2[C@@H](C)CO[C@@H]3O[C@]4(C)CC[C@@H]1[C@]32OO4 [DEOXOARTEMISININ] | 659 | 567
